Assay results published in patent US8088815B2, “Spiroindolinone pyrrolidines” (Hoffman-La Roche Inc., priority 2009, dated 2012).

target: interaction between p53 and MDM2 proteins (Homo sapiens, UniProt Q00987); experiment: HTRF assay of inhibition of the p53-MDM2 interaction (GST-MDM2 / biotinylated p53 peptide); format: binding; conditions: recombinant GST-tagged MDM2 and biotinylated p53 peptide, bsa:0.02%
Protocol: The ability of the compounds to inhibit the interaction between p53 and MDM2 proteins was measured by an HTRF (homogeneous time-resolved fluorescence) assay in which recombinant GST-tagged MDM2 binds to a peptide that resembles the MDM2-interacting region of p53. Binding of GST-MDM2 protein and p53-peptide (biotinylated on its N-terminal end) is registered by the FRET (fluorescence resonance energy transfer) between Europium (Eu)-labeled anti-GST antibody and streptavidin-conjugated Allophycocyanin (APC).
Add 10 uL diluted compounds (1:5 dilution in reaction buffer) to each well, mix by shaking. Add 20 uL biotinylated p53 peptide (180 nM working solution) in reaction buffer to each well and mix on shaker. Incubate at 37° C. for 1 h. Add 20 uL streptavidin-APC and Eu-anti-GST antibody mixture (6 nM Eu-anti-GST and 60 nM streptavidin-APC working solution) in TBS buffer with 0.2% BSA, shake at room temperature for 30 minutes and read using a TRF-capable plate reader at
665 and 615 nm (Victor 5, Perkin ElmerWallac). If not specified, the reagents were purchased from Sigma Chemical Co.

interaction between p53 and MDM2 proteins, sequence (Q00987 whole entry): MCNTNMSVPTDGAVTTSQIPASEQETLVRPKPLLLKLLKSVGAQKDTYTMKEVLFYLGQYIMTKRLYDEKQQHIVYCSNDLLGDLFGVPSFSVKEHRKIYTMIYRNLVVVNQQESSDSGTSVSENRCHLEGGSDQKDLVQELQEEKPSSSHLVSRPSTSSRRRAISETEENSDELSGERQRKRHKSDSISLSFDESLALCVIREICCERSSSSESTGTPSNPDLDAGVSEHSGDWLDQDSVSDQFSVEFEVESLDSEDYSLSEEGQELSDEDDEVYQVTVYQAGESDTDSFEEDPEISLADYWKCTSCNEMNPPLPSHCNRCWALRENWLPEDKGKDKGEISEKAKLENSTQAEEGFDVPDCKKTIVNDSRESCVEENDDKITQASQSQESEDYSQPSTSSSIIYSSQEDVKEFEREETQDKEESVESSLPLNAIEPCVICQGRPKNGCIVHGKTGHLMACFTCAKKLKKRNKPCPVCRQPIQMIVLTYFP

IC50 | Structure (SMILES)
0.034 µM | CC(C)(C)C[C@@H]1N[C@@H](C(=O)Nc2ccc(C#N)cc2)[C@H](c2ccc(F)c(Cl)c2)[C@]12C(=O)Nc1cc(Cl)ccc12 (racemic) [Example 83, rac-(2′S,3′R,4′R,5′R)-6-chloro-4′-(3-chloro-4-fluoro-phenyl)-2′-(2,2-dimethyl-propyl)-2-oxo-1,2-dihydro-spiro[indole-3,3′-pyrrolidine]-5′-carboxylic acid (4-cyano-phenyl)-amide]
0.015 µM | CC(C)(C)C[C@@H]1N[C@@H](C(=O)Nc2ccc(C(N)=O)cc2)[C@H](c2ccc(F)c(Cl)c2)[C@]12C(=O)Nc1cc(Cl)ccc12 (racemic) [Example 84, rac-(2′S,3′R,4′R,5′R)-6-chloro-4′-(3-chloro-4-fluoro-phenyl)-2′-(2,2-dimethyl-propyl)-2-oxo-1,2-dihydro-spiro[indole-3,3′-pyrrolidine]-5′-carboxylic acid (4-carbamoyl-phenyl)-amide]
0.013 µM | CC(C)(C)C[C@@H]1N[C@@H](C(=O)Nc2ccc(C#N)cc2)[C@H](c2cc(F)cc(Cl)c2)[C@]12C(=O)Nc1cc(Cl)ccc12 (racemic) [Example 88, rac-(2′S,3′R,4′R,5′R)-6-chloro-4′-(3-chloro-5-fluoro-phenyl)-2′-(2,2-dimethyl-propyl)-2-oxo-1,2-dihydro-spiro[indole-3,3′-pyrrolidine]-5′-carboxylic acid (4-cyano-phenyl)-amide]
0.013 µM | CC(C)(C)C[C@@H]1N[C@@H](C(=O)Nc2ccc(C(N)=O)cc2)[C@H](c2cc(F)cc(Cl)c2)[C@]12C(=O)Nc1cc(Cl)ccc12 (racemic) [Example 89]
0.018 µM | CC(C)(C)C[C@@H]1N[C@@H](C(=O)Nc2ccc(C#N)cc2)[C@H](c2cccc(Br)c2F)[C@]12C(=O)Nc1cc(Cl)ccc12 (racemic) [Example 98, rac-(2′S,3′R,4′S,5′R)-4′-(3-bromo-2-fluoro-phenyl)-6-chloro-2′-(2,2-dimethyl-propyl)-2-oxo-1,2-dihydro-spiro[indole-3,3′-pyrrolidine]-5′-carboxylic acid (4-cyano-phenyl)-amide]
0.018 µM | CC(C)(C)C[C@@H]1N[C@@H](C(=O)Nc2ccc(C(N)=O)cc2)[C@H](c2cccc(Br)c2F)[C@]12C(=O)Nc1cc(Cl)ccc12 (racemic) [Example 99, rac-(2′S,3′R,4′S,5′R)-4′-(3-bromo-2-fluoro-phenyl)-6-chloro-2′-(2,2-dimethyl-propyl)-2-oxo-1,2-dihydro-spiro[indole-3,3′-pyrrolidine]-5′-carboxylic acid (4-carbamoyl-phenyl)-amide]
0.012 µM | CC(=O)OCC(C)(C)C[C@@H]1N[C@@H](C(=O)Nc2ccc(C#N)cc2)[C@H](c2cccc(Cl)c2F)[C@]12C(=O)Nc1cc(Cl)ccc12 (racemic) [Example 104, acetic acid rac-3-[(2′S,3′R,4′S,5′R)-6-chloro-4′-(3-chloro-2-fluoro-phenyl)-5′-(4-cyano-phenylcarbamoyl)-2-oxo-1,2-dihydro-spiro[indole-3,3′-pyrrolidin]-2′-yl]-2,2-dimethyl-propyl ester]
0.013 µM | CC(C)(CO)C[C@@H]1N[C@@H](C(=O)Nc2ccc(C#N)cc2)[C@H](c2cccc(Cl)c2F)[C@]12C(=O)Nc1cc(Cl)ccc12 (racemic) [Example 105, rac-(2′S,3′R,4′S,5′R)-6-chloro-4′-(3-chloro-2-fluoro-phenyl)-2′-(3-hydroxy-2,2-dimethyl-propyl)-2-oxo-1,2-dihydro-spiro[indole-3,3′-pyrrolidine]-5′-carboxylic acid (4-cyano-phenyl)-amide]

The remaining lines, values behind:

Structure (SMILES) | IC50
COc1cc(C(N)=O)ccc1NC(=O)[C@@H]1N[C@@H](CC(C)(C)C)[C@@]2(C(=O)Nc3cc(Cl)cc(F)c32)[C@H]1c1cccc(Cl)c1F (racemic) [Example 76, rac-(2′S,3′R,4′S,5′R)-6-chloro-4′-(3-chloro-2-fluoro-phenyl)-2′-(2,2-dimethyl-propyl)-4-fluoro-2-oxo-1,2-dihydro-spiro[indole-3,3′-pyrrolidine]-5′-carboxylic acid (4-carbamoyl-2-methoxy-phenyl)-amide] | 0.011 µM
CC(C)(C)C[C@@H]1N[C@@H](C(=O)Nc2ccc(C(N)=O)cc2F)[C@H](c2cccc(Cl)c2F)[C@]12C(=O)Nc1cc(Cl)cc(F)c12 (racemic) [Example 79, rac-(2′S,3′R,4′S,5′R)-6-chloro-4′-(3-chloro-2-fluoro-phenyl)-2′-(2,2-dimethyl-propyl)-4-fluoro-2-oxo-1,2-dihydro-spiro[indole-3,3′-pyrrolidine]-5′-carboxylic acid (4-carbamoyl-2-fluoro-phenyl)-amide] | 0.013 µM
CC(C)(C)C[C@@H]1N[C@@H](C(=O)Nc2ccc(C(N)=O)cc2)[C@H](c2cccc(Cl)c2F)[C@]12C(=O)Nc1cc(Br)ccc12 (racemic) [Example 94, rac-(2′S,3′R,4′S,5′R)-6-bromo-4′-(3-chloro-2-fluoro-phenyl)-2′-(2,2-dimethyl-propyl)-2-oxo-1,2-dihydro-spiro[indole-3,3′-pyrrolidine]-5′-carboxylic acid (4-carbamoyl-phenyl)-amide] | 0.012 µM
CC(C)(CO)C[C@@H]1N[C@@H](C(=O)Nc2ccc(C(N)=O)cc2)[C@H](c2cccc(Cl)c2F)[C@]12C(=O)Nc1cc(Cl)ccc12 (racemic) [Example 106, rac-(2′S,3′R,4′S,5′R)-6-chloro-4′-(3-chloro-2-fluoro-phenyl)-2′-(3-hydroxy-2,2-dimethyl-propyl)-2-oxo-1,2-dihydro-spiro[indole-3,3′-pyrrolidine]-5′-carboxylic acid (4-carbamoyl-phenyl)-amide] | 0.009 µM
COC(=O)c1ccc(NC(=O)[C@@H]2N[C@@H](CC(C)(C)C)[C@@]3(C(=O)Nc4cc(Cl)ccc43)[C@H]2c2cccc(Cl)c2)c(OC)c1 (racemic) [Example 107, rac-4-{[(2′S,3′R,4′R,5′R)-6-chloro-4′-(3-chloro-phenyl)-2′-(2,2-dimethyl-propyl)-2-oxo-1,2-dihydro-spiro[indole-3,3′-pyrrolidine]-5′-carbonyl]-amino}-3-methoxy-benzoic acid methyl ester] | 0.017 µM
COc1cc(C(=O)O)ccc1NC(=O)[C@@H]1N[C@@H](CC(C)(C)C)[C@@]2(C(=O)Nc3cc(Cl)ccc32)[C@H]1c1cccc(Cl)c1 (racemic) [Example 108, rac-4-{[(2′S,3′R,4′R,5′R)-6-chloro-4′-(3-chloro-phenyl)-2′-(2,2-dimethyl-propyl)-2-oxo-1,2-dihydro-spiro[indole-3,3′-pyrrolidine]-5′-carbonyl]amino}-3-methoxy-benzoic acid] | 0.009 µM
COC(=O)c1ccc(NC(=O)[C@@H]2N[C@@H](CC(C)(C)C)[C@@]3(C(=O)Nc4cc(Cl)ccc43)[C@H]2c2cccc(Cl)c2F)c(OC)c1 (racemic) [Example 109, rac-4-{[(2′S,3′R,4′S,5′R)-6-chloro-4′-(3-chloro-2-fluoro-phenyl)-2′-(2,2-dimethyl-propyl)-2-oxo-1,2-dihydro-spiro[indole-3,3′-pyrrolidine]-5′-carbonyl]amino}-3-methoxy-benzoic acid methyl ester] | 0.011 µM
COc1cc(C(=O)O)ccc1NC(=O)[C@@H]1N[C@@H](CC(C)(C)C)[C@@]2(C(=O)Nc3cc(Cl)ccc32)[C@H]1c1cccc(Cl)c1F (racemic) [Example 110, rac-4-{[(2′S,3′R,4′S,5′R)-6-chloro-4′-(3-chloro-2-fluoro-phenyl)-2′-(2,2-dimethyl-propyl)-2-oxo-1,2-dihydro-spiro[indole-3,3′-pyrrolidine]-5′-carbonyl]-amino}-3-methoxy-benzoic acid] | 0.011 µM
